The values below come from patent US11279703B2, “Fused pyrimidine compounds as BRD4 and JAK2 dual inhibitors and methods for use thereof” (APTOSE BIOSCIENCES INC., priority 2016, dated 2022).

The structures appear in SMILES notation. pIC50: −log10 of the molar value. Where two headings read alike, the source gives them in different places.

For this assay, the target named is BRD4-BD1 (Homo sapiens (Human), UniProt O60885). Briefly: AlphaLisa bromodomain binding assay, BRD4-BD1. The source says: An AlphaLisa assay was used to observe bromodomain binding and measure IC50s for the compounds disclosed herein. An AlphaLisa assay is a bead-based assay used to detect interactions between bromodomains and polyacetylated histone peptides. Donor and acceptor beads bound to target and ligand are brought into proximity by this protein-protein interaction.
Equipment Required • 1. […] Plate centrifuge • 3. Plate shaker • 4. […] Single channel and multi-channel pipettes • 6. Microplate reader (Pherastar)
Stock and Final Assay Concentrations (FAC) • 1. All reference and test compounds are made at a concentration of 10 mM in DMSO. Compounds are serially diluted in DMSO and a FAC starting from 10 μM to 10 point 3 fold serial dilutions is arrived. FAC of DMSO is 1%. • 2. Enzyme stock and FAC
Biotinylated substrate (Acetylated histone H4, biotinylated substrate—cat no. AS64989-025, Anaspec) stock and FAC
• 4. Acceptor and donor beads stock and FAC
Buffers • For the enzyme and substrate dilution following buffer is used (for 50 ml) • HEPES: 50 mM 2.5 ml • NaCl: 25 mM 1.25 ml • DTT: 10 mM 0.05 ml • BSA: 0.1% 0.05 g • MilliQ water: 45.7 ml • For dilution of acceptor and donor beads AlphaLISA 5× epigenetics Buffer Perkin Elmer (Cat: AL008C) is used at 1× concentration.
Procedure • 1. […] Tap the plate gently • 3. […] Cover with plate sealer • 5. […] Incubate the plate at room temperature for 10 minutes • 7. Add 10 μl of the substrate • 8. Cover with plate sealer • 9. […] Cover with plate sealer • 14. […] Cover with plate sealer • 18.
The percent inhibition is calculated in the excel analysis template and the IC50 values are subsequently determined using a sigmoidal dose-response curve (variable slope) using GraphPad Prism® 5 software.
(Alpha assays give light when donor and acceptor beads are brought close together.)

Setting [1] is: Table 6, read-out: BRD4(1) IC50.

Consider `CN1CCC(Nc2nc3c(c(Nc4cccc(NS(=O)(=O)C(C)(C)C)c4)n2)COC3)CC1`, for which the negative-log IC50 (pIC50) (as a rule, the negative decadic logarithm of the IC50, by convention in mol/L) under setting [1] is 5.63.

As for `CN1CCC(Nc2nc(Nc3ccc4c(c3)N(S(=O)(=O)C(C)(C)C)CC4)c3ccsc3n2)CC1` [drawing 55], the negative-log IC50 (pIC50) (Table 2, read-out: BRD4 IC50) was 6.80.

Consider `COc1cc(Nc2ncc3ccn(-c4ccc(F)c(NS(=O)(=O)C5CC5)c4)c3n2)ccc1N1CCN(C)CC1`, for which the negative-log IC50 (pIC50) under setting [1] is 6.00.

Consider `O=C(NC1CC1)c1ccn(-c2nc(NC3CCNCC3)nc3sccc23)c1` [drawing 60], for which the pIC50 (Table 2, read-out: BRD4 IC50) is 6.40.

Take `Cc1ccc(Nc2nc(NC3CCN(C)CC3)nc3sccc23)cc1NS(=O)(=O)C(C)(C)C`: the negative logarithm of the IC50 (pIC50) under setting [1] is 6.69.

`CC(C)(C)S(=O)(=O)Nc1ccc(Nc2nc(NC3CCNCC3)nc3sccc23)cc1`: under setting [1], the negative-log IC50 (pIC50) was 5.13.

In the case of `CN1CCC(c2ccc(Nc3ncc4ccn(-c5cccc(NS(=O)(=O)C(C)(C)C)c5)c4n3)cc2)CC1`, the pIC50 under setting [1] is 6.24.

For the compound `CNc1ncc2c(-c3cccc(-c4c(C)noc4C)c3)c[nH]c2n1`, the negative logarithm of the IC50 (pIC50) under setting [1] was 5.00.

Turning to `CC(C)(C)S(=O)(=O)Nc1cccc(Nc2nc(NC3CCNCC3)nc3sccc23)c1` [drawing 49], the pIC50 (Table 1, read-out: BRD4 IC50) is 7.03.

As to `CN1CCC(Nc2nc(Nc3ccc(Cl)c(NS(=O)(=O)C(C)(C)C)c3)c3ccsc3n2)CC1`, the negative logarithm of the IC50 (pIC50) under setting [1] was 6.74.

In the case of `CN1CCN(c2ccc(Nc3ncc4ccn(-c5cccc(NS(=O)(=O)C(C)(C)C)c5)c4n3)cc2)CC1` [drawing 288], the negative logarithm of the IC50 (pIC50) under setting [1] is 5.30.

With `Cc1noc(C)c1-c1cccc(-c2cn(C)c3nc(NC4CCNCC4)ncc23)c1`, the pIC50 under setting [1] is 5.36.

As to `O=C(NC1CC1)c1ccn(-c2nc(NC3CCNCC3)nc3sccc23)c1` [drawing 229], under setting [1], the negative-log IC50 (pIC50) is 5.74.

For `CC(C)(C)S(=O)(=O)Nc1cccc(-n2ccc3cnc(Nc4ccc5c(c4)CCN4CCNCC54)nc32)c1` (stereo not shown), the negative logarithm of the IC50 (pIC50) under setting [1] was 6.12.

As to `Cc1noc(C)c1-c1ccc2nc(N)sc2c1`, the negative logarithm of the IC50 (pIC50) under setting [1] is 5.31.

With `CC(C)(C)S(=O)(=O)Nc1cccc(Nc2nc(NC3CCNCC3)nc3sccc23)c1` [drawing 237], the pIC50 under setting [1] was 6.71.

With `CN1CCC(Nc2nc(-n3ccc(C(=O)NC4CC4)c3)c3ccsc3n2)CC1` [drawing 230], the negative-log IC50 (pIC50) under setting [1] is 5.66.

In the case of `CC(C)(C)S(=O)(=O)Nc1cccc(Nc2nc(NC3CCNC3)nc3sccc23)c1` (stereo not shown) [drawing 54], the negative logarithm of the IC50 (pIC50) (Table 2, read-out: BRD4 IC50) is 5.77.

For the compound `CN1CCN(c2ccc(Nc3nc(Nc4ccc5c(c4)N(S(=O)(=O)C(C)(C)C)CC5)c4ccsc4n3)cc2)CC1`, the pIC50 under setting [1] is 5.34.

As to `CC(C)(C)S(=O)(=O)N1CCc2ccc(Nc3nc(Nc4cccnc4)nc4c3COC4)cc21`, the pIC50 under setting [1] was 5.44.

In the case of `CN1CCC(Nc2nc(Nc3ccc4c(c3)N(S(=O)(=O)C(C)(C)C)CC4)c3ccsc3n2)CC1` [drawing 185], the pIC50 under setting [1] was 6.66.

As to `CC(C)(C)S(=O)(=O)Nc1cccc(Nc2nc(NC3CCNC3)nc3sccc23)c1` (stereo not shown) [drawing 222], the pIC50 under setting [1] was 5.62.

For `CC(C)(C)S(=O)(=O)N1CCc2ccc(Nc3nc(NC4CCNC4)nc4sccc34)cc21` (stereo not shown) [drawing 58], the negative logarithm of the IC50 (pIC50) (Table 2, read-out: BRD4 IC50) was 5.59.

In the case of `CNCCNc1ncc2cc(-c3cccc(-c4c(C)noc4C)c3)ccc2n1`, the pIC50 under setting [1] is 5.96.

For `CC1(C)CN(Cc2ccccc2)CCC1Nc1nc(Nc2cccc(NS(=O)(=O)C(C)(C)C)c2)c2ccsc2n1` (stereo not shown), under setting [1], the pIC50 was 5.12.

Turning to `CN1CCN(c2ccc(Nc3nc4c(c(Nc5ccc6c(c5)N(S(=O)(=O)C(C)(C)C)CC6)n3)COC4)cc2)CC1`, under setting [1], the negative-log IC50 (pIC50) is 5.62.

Consider `CNCCNc1ncc2c(-c3cccc(-c4c(C)noc4C)c3)c[nH]c2n1`, for which the pIC50 under setting [1] was 5.49.

Regarding `CNCCCOc1ccc(Nc2ncc3ccn(-c4cccc(NS(=O)(=O)C(C)(C)C)c4)c3n2)cc1F` [drawing 448], under setting [1], the pIC50 is 6.47.

Regarding `CN1CCN(c2ccc(Nc3ncc4ccn(-c5cccc(NS(=O)(=O)C(C)(C)C)c5)c4n3)cc2)CC1` [drawing 275], under setting [1], the negative-log IC50 (pIC50) is 6.62.

With `CN1CCN2c3c(F)cc(Nc4ncc5scc(-c6cccc(NS(=O)(=O)C(C)(C)C)c6)c5n4)cc3CC2C1` (stereo not shown), the pIC50 under setting [1] is 5.74.

For the compound `CC(C)(C)S(=O)(=O)N1CCc2ccc(Nc3nc(NC4CCNC4)nc4sccc34)cc21` (stereo not shown) [drawing 217], the pIC50 under setting [1] was 5.56.

As to `CC(C)(C)S(=O)(=O)Nc1cc(-n2ccc3cnc(Nc4ccc(N5CCNCC5)cc4)nc32)ccc1F`, the negative logarithm of the IC50 (pIC50) under setting [1] was 6.68.

With `CN(C)C1CCN(c2ccc(Nc3ncc4ccn(-c5ccc(F)c(NS(=O)(=O)C(C)(C)C)c5)c4n3)cc2F)CC1` [drawing 48], the pIC50 (Table 1, read-out: BRD4 IC50) is 7.20.

As for `CC(C)(C)S(=O)(=O)N1CCc2ccc(Nc3nc(NC4CCNCC4)nc4sccc34)cc21`, the pIC50 under setting [1] was 6.19.

`CN1CCC(Nc2nc(Nc3ccc4c(c3)N(S(=O)(=O)C(C)(C)C)CC4)c3sccc3n2)CC1`: the pIC50 under setting [1] was 5.67.

On to `CNCCCOc1ccc(Nc2ncc3ccn(-c4cccc(NS(=O)(=O)C(C)(C)C)c4)c3n2)cc1F` [drawing 466], for which the pIC50 under setting [1] is 6.70.

Turning to `O=C1NCCc2c1ccn2-c1cnc(Nc2ccccc2)nc1`, under setting [1], the negative-log IC50 (pIC50) was 5.75.

`CC(C)(C)S(=O)(=O)Nc1cccc(Nc2nc(NCC3CCNCC3)nc3sccc23)c1` [drawing 220]: under setting [1], the pIC50 was 5.57.

Consider `CC(C)(C)S(=O)(=O)Nc1cc(-n2ccc3cnc(Nc4ccc(N5CCNCC5)c(F)c4)nc32)ccc1F` [drawing 50], for which the pIC50 (Table 1, read-out: BRD4 IC50) was 8.22.

Consider `CN1CCN(c2ccc(Nc3ncc4ccn(-c5ccc(Cl)c(NS(=O)(=O)C6CC6)c5)c4n3)cc2)CC1`, for which, under setting [1], the negative-log IC50 (pIC50) is 5.77.

On to `Cc1cnc(Nc2ccc(N3CCN(C)CC3)cc2)cc1Nc1cccc(NS(=O)(=O)C(C)(C)C)c1`, for which the negative logarithm of the IC50 (pIC50) under setting [1] was 5.20.

Consider `CN1CCN(c2ccc(Nc3nc(Nc4cccc(NS(=O)(=O)C(C)(C)C)c4)c4ccsc4n3)cc2)CC1` [drawing 153], for which the pIC50 under setting [1] was 6.22.

Take `CNCCNc1ncc2c(-c3cccc(-c4c(C)noc4C)c3)cn(C)c2n1`: the pIC50 under setting [1] was 5.12.

For `Cc1cnc(Nc2ccc(N3CCN(C)CC3)c(F)c2)nc1Nc1ccc2c(c1)N(S(=O)(=O)C(C)(C)C)CC2` [drawing 235], the pIC50 under setting [1] is 6.81.

On to `CC1=NCC(C)=C1C1CCCC(c2c[nH]c3nc(N4CCNCC4)ncc23)C1` (stereo not shown), for which the pIC50 under setting [1] is 5.39.

With `CN1CCC(NC(=O)c2ccc(Nc3ncc4ccn(-c5cccc(NS(=O)(=O)C(C)(C)C)c5)c4n3)cc2)CC1`, the negative-log IC50 (pIC50) under setting [1] is 6.39.

As to `COc1ccc(Nc2ncc(-n3ccc4c3CCNC4=O)cn2)cc1`, the pIC50 under setting [1] was 5.01.

Take `Cc1ccc(Nc2nc(NC3CCNCC3)nc3sccc23)cc1NS(=O)(=O)C(C)(C)C`: the negative-log IC50 (pIC50) under setting [1] was 6.50.

Turning to `CC(C)(C)S(=O)(=O)N1CCc2ccc(Nc3nc(NC4CCNCC4)nc4c3COC4)cc21`, the pIC50 under setting [1] was 5.80.

With `CC(C)(C)S(=O)(=O)Nc1cccc(Nc2nc(NC3CCNCC3)nc3sccc23)c1` [drawing 159], the pIC50 under setting [1] is 6.46.

For the compound `Cc1cnc(NC2CCN(C)CC2)nc1Nc1cccc(NS(=O)(=O)C(C)(C)C)c1`, the pIC50 under setting [1] was 5.87.

Regarding `CN1CCN(c2ccc(Nc3ncc4ccn(-c5cccc(NS(=O)(=O)C(C)(C)C)c5)c4n3)cc2)CC1` [drawing 73], under “Table 5, read-out: BRD4 IC50”, the pIC50 was 6.66.

For `CN1CCC(NC(=O)c2ccc(Nc3ncc4ccn(-c5ccc(F)c(NS(=O)(=O)C(C)(C)C)c5)c4n3)cc2F)CC1` [drawing 47], the pIC50 (Table 1, read-out: BRD4 IC50) was 7.03.

Regarding `CN1CCN(c2cccc(Nc3nc(Nc4cccc(NS(=O)(=O)C(C)(C)C)c4)c4ccsc4n3)c2)CC1`, the negative-log IC50 (pIC50) under setting [1] was 5.30.

Take `CC(C)(C)S(=O)(=O)Nc1cccc(Nc2nc(NCC3CCNCC3)nc3sccc23)c1` [drawing 53]: under “Table 2, read-out: BRD4 IC50”, the pIC50 was 5.92.
